Laboratory results as given in patent US6868343B1, “Interactions between substances and surfaces that are made up of amphiphilic molecules” (NIMBUS Biotechnologie GmbH, priority 1998, dated 2005).

What was measured:
[1] = Membrane-water distribution by HPLC on solid-supported egg lecithin bilayer (column A1); type: physicochemical; settings: column A1, pH 7.4, 23° C., calculated from retention time via calibration curve; read-out: logDcal-PC, pH 7.4
Text: A natural mixture of egg lecithin and 0.03 mole % fluorescence marker 1-hexadecanoyl-2-(1-pyrenedecanoyl)-sn-glycero-3-phosphocholine is suspended in chloroform and the solvent completely removed in vacuo. The lipids are subsequently dispersed in the aqueous buffer (pH 7.4) and small, unilamellar vesicles are produced by ultrasonic treatment. By mixing with spherical, porous silicate structures (silicate gel with 10 μm sphere diameter and 400 nm pore size) at temperatures higher than the Tm of the lipids, the corresponding solid-supported lipid bilayer is obtained by the spontaneous fusion of the vesicles on the silicate surface. […]
For determining the dead time t0 in the selected system, 5 μl of a 5 mM potassium iodide solution is injected into buffer A. In the case of the HPLC column A1 in reproducible manner a t0 of 0.64 min is measured and for column A2 t0=0.58 min. […]
The quantities of compound to be injected are determined on the one hand by its adsorption tendency on the stationary phase and on the other by the detectability of the compound. As a rule most reference compounds can be detected using spectroscopic methods (here UV/V is spectroscopy at 210 nm). The measured retention times tR are directly correlated with the octanol/water partition coefficient using a prior art equation system. […]
In the present example logD cal-PC, pH 7.4 is determined.

[2] = Partition coefficient between solid-supported membrane C (DEPC) and aqueous compartment, UV/Vis at 304 nm; type: physicochemical; settings: pH 7.4, tetracaine 25 μm, buffer A
Text: The process for determining lipid binding constants with the aid of solid, biocompatible surfaces can also be used for pharmaceuticals. […] For an analyzing the partition coefficient of this pharmaceutical between the lipid and water phases, as described in example 1, porous silicate structures are coated with a charge-neutral membrane of 99.97 mole % zwitterionic lecithin 1,2-dielaidoyl-sn-3-glycero-3-phosphocholine (DEPC) and 0.03 mole % fluorescence marker 1-hexadecanoyl-2-(-pyrenedecanoyl)-sn-glycero-3-phosphocholine (hereinafter called membrane C).
The active agent tetracaine to be analyzed is placed in double sample form in aqueous solution (buffer A) in a constant concentration of 25 μm and mixed with different quantities of membrane C (concentration range of the lipid 5*10^−5−2*10^−3 mole/l). […] The free active agent concentration in the supernatant material can be rapidly determined in the case of the UV-active compound tetracaine with the aid of UV/Vis spectroscopy (detection at 304 nm). Alternatively the remaining lipid-free supernatant materials can be analyzed using chromatographic methods (HPLC, gas chromatography, etc.). […]
The partition coefficient found for tetracaine between the solid-supported membrane C and the aqueous compartment at the physiologically relevant pH-value 7.4 is 1.4. The binding constants are calculated according to standard procedures.

| partition coefficient between solid-supported membrane C and aqueous compartment [2] | Compound | chromatographic logD [1] |
| --- | --- | --- |
| – | CC(=O)CC(c1ccccc1)c1c(O)c2ccccc2oc1=O (centres unmarked) [Warfarin, 3-(-acetonylbenzyl)-4-hydroxycoumarin] | 1.1 |
| 1.4 | CCCCNc1ccc(C(=O)OCCN(C)C)cc1 [tetracaine] | – |
